The record followed here is US20210078988A1, “MODULATORS OF INDOLEAMINE 2,3-DIOXYGENASE” (GLAXOSMITHKLINE INTELLECTUAL PROPERTY DEVELOPMENT LIMITED, priority 2017, published 2021).

Structures are written as SMILES.

T1 sequence (P14902 whole entry): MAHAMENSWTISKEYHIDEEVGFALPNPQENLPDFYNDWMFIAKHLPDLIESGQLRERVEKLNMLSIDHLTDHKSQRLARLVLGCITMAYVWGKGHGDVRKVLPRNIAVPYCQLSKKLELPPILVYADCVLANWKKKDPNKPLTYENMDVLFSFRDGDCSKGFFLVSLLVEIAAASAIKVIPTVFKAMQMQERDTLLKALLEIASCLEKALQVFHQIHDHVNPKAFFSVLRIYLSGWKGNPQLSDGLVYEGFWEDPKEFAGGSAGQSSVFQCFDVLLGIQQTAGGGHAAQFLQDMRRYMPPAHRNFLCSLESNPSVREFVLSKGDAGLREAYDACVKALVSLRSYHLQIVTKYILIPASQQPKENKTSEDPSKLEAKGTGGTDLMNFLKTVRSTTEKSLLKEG

The test concerns the target T1, indoleamine 2, 3-dioxygenase (IDO1) (Homo sapiens, UniProt P14902).
T1 construct: human peripheral blood mononuclear cells (PBMC) (PB003F; host or cells: human PBMC stimulated with IFN-gamma and LPS
The experiment in a line: PBMC IDO1 assay (kynurenine detection via mass spectrometry). In kind it is cell-based. To be noted: human PBMC stimulated with IFN-γ and LPS, 2 days, kynurenine by mass spectrometry; read-out: IDO1 PBMC pIC50 (converted). In outline:
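Human PBMCs (50,000/well) stimulated with IFN-γ 100 ng/ml and LPS 50 ng/ml were exposed to 11-point 3-fold compound dilutions for 2 days at 37 °C. Supernatant kynurenine was quantified by RapidFire MS relative to an internal standard; parallel CellTiter-Glo ATP luminescence measured cytotoxicity, with four-parameter curve fitting.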
In the case of `C#CCOc1ccc(C(=O)NC(CC2CCN(C(=O)OC(C)(C)C)CC2)c2ccccc2)cc1F` (stereo not drawn) [Example 114, tert-butyl 4-(2-(3-fluoro-4-(prop-2-yn-1-yloxy)benzamido)-2-phenylethyl)piperidine-1-carboxylate], the IC50 was 0.0316 µM. For the molecule `CC(C)(C)OC(=O)N1CCC(CC(NC(=O)c2ccc(Cl)s2)C2CCCC2)CC1` (stereo not drawn) [Example 115, tert-butyl 4-(2-(5-chlorothiophene-2-carboxamido)-2-cyclopentylethyl)piperidine-1-carboxylate], the IC50 is 0.0316 µM.

For the molecule `CC(C)(C)OC(=O)N1CCC(CC(NC(=O)c2ccc(F)s2)C2CCCC2)CC1` (stereo not drawn) [Example 116, tert-butyl 4-(2-cyclopentyl-2-(5-fluorothiophene-2-carboxamido)ethyl)piperidine-1-carboxylate], the IC50 is 0.0316 µM. For `O=C(NC(CC1CCN(C(=O)OCc2ccccc2)CC1)c1ccccc1)c1ccc(Cl)cc1` (stereo not drawn) [Example 117, benzyl 4-(2-(4-chlorobenzamido)-2-phenylethyl)piperidine-1-carboxylate], the IC50 was 0.0316 µM. Consider `CCc1ccc(C(=O)NC(CC2CCN(C(=O)OC(C)(C)C)CC2)c2ccccc2)cc1` (stereo not drawn) [Example 118, tert-butyl 4-(2-(4-ethylbenzamido)-2-phenylethyl)piperidine-1-carboxylate], for which the IC50 was 0.0316 µM. Consider `C=Cc1ccc(C(=O)NC(CC2CCN(C(=O)OC(C)(C)C)CC2)c2ccccc2)cc1` (stereo not drawn) [Example 119, tert-butyl 4-(2-phenyl-2-(4-vinylbenzamido)ethyl)piperidine-1-carboxylate], for which the IC50 is 0.0316 µM.

With `CCOC(=O)N1CCC(CC(NC(=O)c2ccc(F)cc2)c2ccccc2)CC1` (stereo not drawn) [Example 120, ethyl 4-(2-(4-fluorobenzamido)-2-phenylethyl)piperidine-1-carboxylate], the IC50 was 0.0398 µM.

As to `O=C(NC(CC1CCN(C(=O)Oc2ccccc2)CC1)c1ccccc1)c1ccc(F)cc1` (stereo not drawn) [Example 121, phenyl 4-(2-(4-fluorobenzamido)-2-phenylethyl)piperidine-1-carboxylate], the IC50 is 0.0398 µM. Consider `CCN(CC)c1ccc(C(CC2CCN(C(=O)OC(C)(C)C)CC2)NC(=O)c2ccc(F)cc2)cn1` (stereo not drawn) [Example 122, tert-butyl 4-(2-(6-(diethylamino)pyridin-3-yl)-2-(4-fluorobenzamido)ethyl)piperidine-1-carboxylate], for which the IC50 was 0.0398 µM. With `COc1ccc(C(=O)N[C@@H](CC2CCN(C(=O)OC(C)(C)C)CC2)c2ccccc2)cn1` [Example 123, (S)-tert-butyl 4-(2-(6-methoxynicotinamido)-2-phenylethyl)piperidine-1-carboxylate], the IC50 is 0.0398 µM. The result for `CC(C)c1ccc(C(=O)NC(CC2CCN(C(=O)OC(C)(C)C)CC2)c2ccccc2)s1` (stereo not drawn) [Example 124, tert-butyl 4-(2-(5-isopropylthiophene-2-carboxamido)-2-phenylethyl)piperidine-1-carboxylate] reads 0.0398 µM; that for `CC(C)COC(=O)N1CCC(CC(NC(=O)c2ccc(Cl)cc2)c2ccccc2)CC1` (stereo not drawn) [Example 125, isobutyl 4-(2-(4-chlorobenzamido)-2-phenylethyl)piperidine-1-carboxylate], 0.0398 µM. For the molecule `CC(C)(C)OC(=O)N1CCC(CC(NC(=O)c2ccc(Br)cc2)C2CCCC2)CC1` (stereo not drawn) [Example 126, tert-butyl 4-(2-(4-bromobenzamido)-2-cyclopentylethyl)piperidine-1-carboxylate], the IC50 was 0.0398 µM. The result for `CCNc1nnc(C(CC2CCN(C(=O)OC(C)(C)C)CC2)NC(=O)c2ccc(Cl)s2)o1` (stereo not drawn) [Example 127, tert-butyl 4-(2-(5-chlorothiophene-2-carboxamido)-2-(5-(ethylamino)-1,3,4-oxadiazol-2-yl)ethyl)piperidine-1-carboxylate] reads 0.0398 µM; that for `CC(C)(C)OC(=O)N1CCC(CC(NC(=O)c2csc(Cl)c2)c2ccccc2)CC1` (stereo not drawn) [Example 128, tert-butyl 4-(2-(5-chlorothiophene-3-carboxamido)-2-phenylethyl)piperidine-1-carboxylate], 0.0398 µM; that for `CC(C)(C)OC(=O)N1CCC(C[C@@H](CCN2CCOCC2)NC(=O)c2ccc(Cl)s2)CC1` [Example 129, (S)-tert-butyl 4-(2-(5-chlorothiophene-2-carboxamido)-4-morpholinobutyl)piperidine-1-carboxylate], 0.0398 µM. Under `Cc1ccc(C(=O)NC(CC2CCN(C(=O)OC(C)(C)C)CC2)c2ccccc2)cc1` (stereo not drawn) [Example 130, tert-butyl 4-(2-(4-methylbenzamido)-2-phenylethyl)piperidine-1-carboxylate] stands 0.0501 µM; under `CC(C)(C)OC(=O)N1CCC(CC(NC(=O)c2cccs2)c2ccccc2)CC1` (stereo not drawn) [Example 131, tert-butyl 4-(2-phenyl-2-(thiophene-2-carboxamido)ethyl)piperidine-1-carboxylate], 0.0501 µM; under `CC(C)(C)OC(=O)N1CCC(CC(NC(=O)c2ccc(F)cc2)c2ccc(OC3CCCCC3)nc2)CC1` (stereo not drawn) [Example 132, tert-butyl 4-(2-(6-(cyclohexyloxy)pyridin-3-yl)-2-(4-fluorobenzamido)ethyl)piperidine-1-carboxylate], 0.0501 µM.

As to `CC(C)(C)OC(=O)N1CCC(CC(NC(=O)c2ccc(C3CC3)c(F)c2)c2ccccc2)CC1` (stereo not drawn) [Example 133, tert-butyl 4-(2-(4-cyclopropyl-3-fluorobenzamido)-2-phenylethyl)piperidine-1-carboxylate], the IC50 is 0.0501 µM. For `COC(=O)N1CCC(CC(NC(=O)c2ccc(Cl)cc2)c2ccccc2)CC1` (stereo not drawn) [Example 134, methyl 4-(2-(4-chlorobenzamido)-2-phenylethyl)piperidine-1-carboxylate], the IC50 was 0.0501 µM. Turning to `CC(C)(C)OC(=O)N1CCC(CC(NC(=O)c2ccc(Cl)cc2)C2CCCCC2)CC1` (stereo not drawn) [Example 135, tert-butyl 4-(2-(4-chlorobenzamido)-2-cyclohexylethyl)piperidine-1-carboxylate], the IC50 is 0.0501 µM. Regarding `Cc1ccc(C(=O)NC(CC2CCN(C(=O)C(F)(F)c3ccccn3)CC2)c2ccccc2)s1` (stereo not drawn) [Example 136, N-(2-(1-(2,2-difluoro-2-(pyridin-2-yl)acetyl)piperidin-4-yl)-1-phenylethyl)-5-methylthiophene-2-carboxamide], the IC50 is 0.0501 µM. As to `Cc1ccc(C(=O)NC(CC2CCN(c3ccccc3)CC2)c2ccccc2)s1` (stereo not drawn) [Example 137, 5-methyl-N-(1-phenyl-2-(1-phenylpiperidin-4-yl)ethyl)thiophene-2-carboxamide], the IC50 was 0.0501 µM. Consider `CC(C)(C)OC(=O)N1CCC(CC(NC(=O)c2ccccc2)c2ccccc2)CC1` (stereo not drawn) [Example 138, tert-butyl 4-(2-benzamido-2-phenylethyl)piperidine-1-carboxylate], for which the IC50 was 0.0631 µM. In the case of `Cc1ccc(C(=O)NC(CC2CCN(C(=O)OC(C)(C)C)CC2)c2ccccc2)cc1F` (stereo not drawn) [Example 139, tert-butyl 4-(2-(3-fluoro-4-methylbenzamido)-2-phenylethyl)piperidine-1-carboxylate], the IC50 was 0.0631 µM. On to `CN(Cc1ccccc1)c1nnc(C(CC2CCN(C(=O)OC(C)(C)C)CC2)NC(=O)c2ccc(Cl)s2)o1` (stereo not drawn) [Example 140, tert-butyl 4-(2-(5-(benzyl(methyl)amino)-1,3,4-oxadiazol-2-yl)-2-(5-chlorothiophene-2-carboxamido)ethyl)piperidine-1-carboxylate], for which the IC50 was 0.0631 µM. As for `CC(C)(C)OC(=O)N1CCC(CC(NC(=O)c2ccc(C#N)cc2)c2ccccc2)CC1` (stereo not drawn) [Example 141, tert-butyl 4-(2-(4-cyanobenzamido)-2-phenylethyl)piperidine-1-carboxylate], the IC50 is 0.0631 µM. As for `CC(C)(C)OC(=O)N1CCC(CC(CNCc2ccccc2)NC(=O)c2ccc(F)cc2)CC1` (stereo not drawn) [Example 142, tert-butyl 4-(3-(benzylamino)-2-(4-fluorobenzamido)propyl)piperidine-1-carboxylate], the IC50 is 0.0631 µM. With `COc1ccc(C(=O)NC(CC2CCN(C(=O)OC(C)(C)C)CC2)c2ccccc2)cc1` (stereo not drawn) [Example 143, tert-butyl 4-(2-(4-methoxybenzamido)-2-phenylethyl)piperidine-1-carboxylate], the IC50 is 0.0794 µM. As for `CC(C)Oc1ccc(C(CC2CCN(C(=O)OC(C)(C)C)CC2)NC(=O)c2ccc(F)cc2)cn1` (stereo not drawn) [Example 144, tert-butyl 4-(2-(4-fluorobenzamido)-2-(6-isopropoxypyridin-3-yl)ethyl)piperidine-1-carboxylate], the IC50 is 0.0794 µM. Turning to `COC(=O)N1CCC(CC(NC(=O)c2ccc(F)cc2)c2ccc(OC)nc2)CC1` (stereo not drawn) [Example 145, methyl 4-(2-(4-fluorobenzamido)-2-(6-methoxypyridin-3-yl)ethyl)piperidine-1-carboxylate], the IC50 was 0.0794 µM. Under `CC(C)(C)OC(=O)N1CCC(CC(NC(=O)c2cccc(F)c2)c2ccccc2)CC1` (stereo not drawn) [Example 146, tert-butyl 4-(2-(3-fluorobenzamido)-2-phenylethyl)piperidine-1-carboxylate] stands 0.0794 µM. The result for `CC(C)(C)OC(=O)N1CCC(CC(NC(=O)c2ccc(F)c(F)c2)c2ccccc2)CC1` (stereo not drawn) [Example 147, tert-butyl 4-(2-(3,4-difluorobenzamido)-2-phenylethyl)piperidine-1-carboxylate] reads 0.0794 µM; that for `CC(C)(C)OC(=O)N1CCC(C[C@H](Nc2nc3ccc(Cl)cc3o2)C2CC2)CC1` [Example 148, (S)-tert-butyl 4-(2-((6-chlorobenzo[d]oxazol-2-yl)amino)-2-cyclopropylethyl)piperidine-1-carboxylate], 0.0794 µM.

Regarding `CC#CCOc1ccc(C(=O)NC(CC2CCN(C(=O)OC(C)(C)C)CC2)c2ccccc2)cc1` (stereo not drawn) [Example 149, tert-butyl 4-(2-(4-(but-2-yn-1-yloxy)benzamido)-2-phenylethyl)piperidine-1-carboxylate], the IC50 is 0.0794 µM.
